Measured values as given in article PMC9214036, “Design and Synthesis of Novel PRMT1 Inhibitors and Investigation of Their Effects on the Migration of Cancer Cell” (Frontiers in Chemistry, 2022).
Structures can show the parent of a compound that is named as a salt.

Experiments:
PRMT1 = PRMT1 (Homo sapiens, UniProt Q99873); test: Radioactive PRMT1 methylation inhibition assay ([3H]-SAM, biotinylated histone H4 peptide); type: biochemical
Description: A series of 2,5-substituted furan and 2,4-substituted thiazole derivatives were synthesized and screened for their inhibitory effects on PRMT1 by using the radioactive PRMT1 methylation inhibition assay, which measured the amount of methyl groups that transferred from [^3H]-SAM to a biotinylated histone H4 peptide [ac-[…](Biotin)] (Tables 1–3).
The enzyme inhibitory activities and selectivity were measured by the radioisotope assay and AlphaLISA assay in ShangHai Chempartner Co., Ltd., according to the standard protocol. […] After 250 nL of compound solutions were added to the assay plate, 15 μl of PRMT1 enzyme solution or ×1 assay buffer for negative control was transferred to each well of prepared compound stock plates and the whole system (the final concentration of PRMT1 was 0.5 nM or 2 nM in the system) was incubated for 15 min at room temperature. […] Afterward, the reaction was stopped with the addition of 5 μl cold SAM solution to each well. Then, 25 μl volume per well was transferred to a Flashplate from the assay plate and incubated for a minimum of 1 h at room temperature. Finally, the Flashplate was washed with dH2O and 0.1% Tween-20 three times and then the reading plate in Microbeta using the program ^3H-Flashplate. The data were analyzed in GraphPad Prism 5 to obtain IC50 values.

A549 cells [1] = test: Western blot of TGF-β1-induced mesenchymal markers (EMT) in A549 cells; type: cell-based, human; conditions: TGF-β1 48 h, WCJ-394 pretreatment 5, 10, 20 μM
Description: (§1) A549 cells in the logarithmic growth phase were seeded into a 6-well cell culture plate at a density of 3 × 10^5 cells per well.
(§2) A549 cells were lysed in RIPA buffer, which contains protease and phosphatase inhibitors, and then harvested in Eppendorf tubes for centrifugation (14,000 rpm for 10 min at 4°C) to remove cell debris. The supernatants were transferred into new Eppendorf tubes, and the protein concentration was quantified with a BCA kit (Thermo Fisher). The protein samples were separated by 10% SDS-PAGE and transferred onto polyvinylidene difluoride (PVDF) membranes. The membranes were blocked for 1 h at room temperature in 5% BSA and then incubated with the corresponding primary antibodies overnight at 4°C and then incubated with secondary antibodies for another 1 h at room temperature. After being washed with TBST buffer three times, the PVDF membranes were visualized with ECL reagents (Millipore) and the Western blot results were further analyzed by ImageJ software (National Institutes of Health).

TGF-β signaling = test: cells; conditions: 18 h, read-out: IC50, inhibition of TGF-β signaling
Description: The medium was changed into DMEM with 0.1% FBS. […] The final concentration of DMSO should be maintained at 0.1%. After incubation, the medium was removed and the cells were rinsed with PBS to remove any residual compound. One hundred microliters of the Steady-Glo® Luciferase Assay reagent (Promega) was added to each well, and the cells were lysed in the dark for 10 min on a horizontal shaker. The luciferase activity was measured in a luminometer.

MLEC = MLEC cell viability (CCK-8) under the luciferase assay condition; type: cell-based, mink; conditions: concentration up to 100 μM, same condition as luciferase assay
Description: (§3) Cells were seeded into a 96-well plate; after 12 h of attachment, the cells were treated with different concentrations (0–1,600 μΜ) of WCJ-394 for 48 h. Cell viability was assessed by a Cell Counting Kit-8 (CCK-8; MCE) according to the manufacturer’s instructions. Briefly, after treatment, the CCK-8 solution was added to the culture medium and incubated at 37°C for 1 h. Cell viability was assessed by measuring the absorbance at 450 nm. In the subsequent luciferase assays, the effects of WCJ-394 on the cell viability were examined in parallel to exclude the compound-induced cell death.
The luciferase activity was measured in a luminometer.

[2] = CCK-8 cell viability assay in A549 cells; type: cell-based, human; conditions: human, A549 cells treated for 48 h, read-out: IC50 (CC50), A549 cell viability
Description: (§4) To determine the effects of WCJ-394 on the inhibition of TGF-β1-induced epithelial–mesenchymal transition (EMT) in A549 cells, the characterized proteins were detected using the Western blotting assay.
as §3

A549 cells [3] = test: CCK-8 cell viability assay in A549 cells; type: cell-based, human; conditions: concentrations of 0–50 μM
Description: as §4, §3

PRMT4 = biological target: T1, PRMT4 (Homo sapiens, UniProt Q86X55); test: AlphaLISA selectivity assay, PRMT4; type: biochemical; conditions: read-out: IC50 against PRMT4
T1 sequence (Q86X55 1-608): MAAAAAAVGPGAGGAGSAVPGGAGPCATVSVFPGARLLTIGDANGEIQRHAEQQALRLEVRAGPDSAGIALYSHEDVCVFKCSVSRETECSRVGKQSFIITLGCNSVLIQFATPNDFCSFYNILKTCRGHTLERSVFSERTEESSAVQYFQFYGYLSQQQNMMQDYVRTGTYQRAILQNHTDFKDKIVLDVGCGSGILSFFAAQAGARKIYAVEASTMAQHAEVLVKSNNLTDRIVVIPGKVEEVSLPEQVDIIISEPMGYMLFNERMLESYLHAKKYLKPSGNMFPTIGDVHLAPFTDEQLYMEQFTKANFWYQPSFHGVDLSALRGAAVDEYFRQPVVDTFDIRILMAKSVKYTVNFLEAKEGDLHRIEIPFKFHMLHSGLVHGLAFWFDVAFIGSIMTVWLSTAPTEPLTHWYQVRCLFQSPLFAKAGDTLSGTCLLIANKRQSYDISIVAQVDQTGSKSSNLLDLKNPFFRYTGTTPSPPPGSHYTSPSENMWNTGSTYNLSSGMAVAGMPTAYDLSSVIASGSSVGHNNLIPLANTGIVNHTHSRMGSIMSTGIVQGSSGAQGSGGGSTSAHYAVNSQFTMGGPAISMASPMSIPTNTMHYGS
Description: (§5) […]. […] Next, 5 μl of enzyme solution was transferred to the assay plate and incubated at room temperature for 15 min. Then, 5 μl of substrate solution was added to each well to start the reaction. After incubation at room temperature for 30 min (PRMT4,6) and 60 min (PRMT3,8), 15 μl of acceptor and donor bead mix solution were added to the assay plate and incubated at room temperature for 60 min with subdued light. The signal was collected with Envision or EnSpire with Alpha mode. The data were analyzed in GraphPad Prism 5 to obtain IC50 values.

A549 cells [4] = test: Scratch wound healing assay, TGF-β1-induced A549 cell migration; type: cell-based, human
Description: In the scratch wound healing assay, the percentages of scratch widths at 24 and 48 h compared to that of 0 h were used to denote the rate of A549 cell migration. As shown in Figures 6A–C, the TGF-β1 treatment promoted the scratched wound closure.
The monolayer cell was scratched with a new 10 μl pipette tip across the center of the well, and the detached cells were gently rinsed with PBS buffer. […] The scratch was photographed through a microscope at ×100 magnification at 0, 24, and 48 h. Then, the scratch width was quantified by ImageJ software and the rate of wound closure was calculated with the final values expressed as a migration percentage of the scratch width relative to 0 h.

PRMT3 = PRMT3 (Homo sapiens, UniProt O60678); test: AlphaLISA selectivity assay, PRMT3; type: biochemical; conditions: read-out: IC50 against PRMT3
Sequence of PRMT3 (O60678 whole entry): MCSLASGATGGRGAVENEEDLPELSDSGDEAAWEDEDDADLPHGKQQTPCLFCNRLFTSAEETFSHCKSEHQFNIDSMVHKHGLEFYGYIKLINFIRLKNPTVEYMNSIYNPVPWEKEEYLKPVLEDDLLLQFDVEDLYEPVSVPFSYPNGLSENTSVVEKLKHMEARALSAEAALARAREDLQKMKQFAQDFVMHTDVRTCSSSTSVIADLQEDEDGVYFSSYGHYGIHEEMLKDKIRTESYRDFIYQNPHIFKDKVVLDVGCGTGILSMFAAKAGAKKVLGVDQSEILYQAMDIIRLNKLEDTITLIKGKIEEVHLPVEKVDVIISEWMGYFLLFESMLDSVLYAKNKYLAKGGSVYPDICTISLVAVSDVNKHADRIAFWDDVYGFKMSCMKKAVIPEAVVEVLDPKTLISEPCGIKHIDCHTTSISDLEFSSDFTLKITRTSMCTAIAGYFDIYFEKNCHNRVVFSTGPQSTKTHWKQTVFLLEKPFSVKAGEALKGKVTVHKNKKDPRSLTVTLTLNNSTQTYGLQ
Description: as §5

A549 cells [5] = test: Western blot of PRMT-related proteins (SDMA, ADMA, DDAH, PRMT1) in A549 cells; type: cell-based, human; conditions: WCJ-394 5, 10, 20 μM, 48 h
Description: as §1, §2

A549 cells [6] = test: Transwell migration assay, TGF-β1-induced A549 cell migration; type: cell-based, human; conditions: TGF-β1, WCJ-394 pretreatment 5, 10, 20 μM
Description: A549 cells in the logarithmic growth phase were resuspended with a serum-free DMEM medium and seeded into the 8-μm transwell filter inserts at a density of 8 × 10^3 cells per well; meanwhile, 600 μl medium containing 10% FBS was added into the lower chambers of the 24-well cell culture plate. […] After incubation, the cells in the upper chambers were carefully removed with a cotton swab, while the cells that had traversed to the bottom side of the membrane were fixed with 4% paraformaldehyde for 15 min and stained with 0.1% crystal violet for 20 min. The chambers were washed with PBS buffer to remove extra crystal violet. Three fields of view were randomly taken and photographed from the central and surrounding parts of each membrane under a microscope at ×100 magnification, and cell number was calculated by ImageJ software.

PRMT8 = PRMT8 (Homo sapiens, UniProt Q9NR22); test: AlphaLISA selectivity assay, PRMT8; type: biochemical; conditions: read-out: IC50 against PRMT8
Sequence of PRMT8 (Q9NR22 whole entry): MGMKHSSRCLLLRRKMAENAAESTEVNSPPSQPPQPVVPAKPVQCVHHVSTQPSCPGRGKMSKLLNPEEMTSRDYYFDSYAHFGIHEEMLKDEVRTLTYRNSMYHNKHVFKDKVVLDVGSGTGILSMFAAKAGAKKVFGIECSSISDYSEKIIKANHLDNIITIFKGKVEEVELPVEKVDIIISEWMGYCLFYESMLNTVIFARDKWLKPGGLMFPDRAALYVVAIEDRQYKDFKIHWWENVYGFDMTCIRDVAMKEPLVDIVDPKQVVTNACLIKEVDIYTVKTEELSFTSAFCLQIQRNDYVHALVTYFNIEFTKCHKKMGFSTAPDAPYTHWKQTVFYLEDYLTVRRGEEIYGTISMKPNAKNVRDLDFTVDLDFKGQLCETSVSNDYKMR
Description: as §5

PRMT6 = PRMT6 (Homo sapiens, UniProt Q96LA8); test: AlphaLISA selectivity assay, PRMT6; type: biochemical; conditions: read-out: IC50 against PRMT6
Sequence of PRMT6 (Q96LA8 whole entry): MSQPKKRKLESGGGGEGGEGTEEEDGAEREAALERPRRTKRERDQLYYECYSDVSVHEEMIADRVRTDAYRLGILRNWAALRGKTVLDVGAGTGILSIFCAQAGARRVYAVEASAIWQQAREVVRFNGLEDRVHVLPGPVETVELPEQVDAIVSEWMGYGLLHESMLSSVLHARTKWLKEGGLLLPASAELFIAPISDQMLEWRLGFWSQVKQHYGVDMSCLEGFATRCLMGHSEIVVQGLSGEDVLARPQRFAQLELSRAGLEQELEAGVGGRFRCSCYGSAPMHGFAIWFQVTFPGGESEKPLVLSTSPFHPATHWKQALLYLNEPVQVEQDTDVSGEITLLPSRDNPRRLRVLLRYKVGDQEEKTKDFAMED
Description: as §5

Sequence of PRMT1 (Q99873 whole entry): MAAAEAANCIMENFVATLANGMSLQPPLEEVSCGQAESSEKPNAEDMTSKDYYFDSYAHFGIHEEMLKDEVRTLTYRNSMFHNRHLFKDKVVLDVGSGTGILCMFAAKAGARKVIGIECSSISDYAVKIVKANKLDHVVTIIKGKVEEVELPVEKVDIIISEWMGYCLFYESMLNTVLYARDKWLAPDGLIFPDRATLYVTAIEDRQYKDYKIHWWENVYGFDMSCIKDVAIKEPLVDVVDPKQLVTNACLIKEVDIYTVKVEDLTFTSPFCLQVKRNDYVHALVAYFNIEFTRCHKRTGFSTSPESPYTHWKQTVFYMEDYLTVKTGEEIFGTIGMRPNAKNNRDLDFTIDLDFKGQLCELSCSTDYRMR

## CN(CCN)Cc1csc(-c2ccc(C(=N)N)nc2)n1 [Compound 1r, N′-[2-(2-Aminocarboximido-5-pyridyl)thiazol-4-yl-methyl]-N′-methylethylenediamine Hydrochloride]
PRMT1; fold weaker than SAH
  PRMT1 IC50 compared with SAH: about two times weaker than SAH
PRMT1; radioactive methylation assay, read-out: IC50 (μM) against PRMT1
  IC50: 1.21 ± 0.11 µM
PRMT1; read-out: % Inhibition of PRMT1 (at 10 μM)
  inhibition at 10 µM: 98.5 ± 0.04%
A549 cells [1]
  expression of EMT-related proteins (fibronectin, N-cadherin, MMP-2, α-SMA): decreased (p < 0.05) by the pretreatment of WCJ-394 in a concentration-dependent manner
TGF-β signaling
  IC50: 17.7 µM
MLEC
  cytotoxicity in MLEC (cell viability): without showing significant cytotoxicity
[2]
  IC50 at 48 h: 584 µM
A549 cells [3]
  cytotoxicity in A549 cells: did not result in any cytotoxicity
PRMT4
  IC50: 1.64 ± 0.17 µM
A549 cells [4]; WCJ-394 pretreatment at 10 or 20 μM, 24 h
  TGF-β1-induced cell migration (scratched wound closure) at 24 h: significantly inhibited
A549 cells [4]; WCJ-394 pretreatment, 48 h
  TGF-β1-induced cell migration (scratched wound closure) at 48 h: retardation effect of WCJ-394 on cell migration was further detected
PRMT3
  IC50: 57.6 ± 0.62 µM
A549 cells [5]
  expression level of ADMA: significantly reduced in a concentration-dependent manner
  expression of DDAH: significantly decreased in a concentration-dependent manner
  expression of PRMT1: not significantly affected
  expression of SDMA: not affected
A549 cells [6]
  number of migrated cells (transwell): significantly decreased the number of migrated cells in a concentration-dependent manner
PRMT8
  IC50: 5.71 ± 0.05 µM
PRMT6
  IC50: 29.7 ± 2.03 µM
